Assay results: US11952364B2, “TRK inhibitors useful as anticancer drugs” (TYLIGAND BIOSCIENCE (SHANGHAI) LIMITED, priority 2018, dated 2024)

Legend:
[1] = system: Ba/F3 LMNA-NTRK1-G595R cells; assay: Proliferation of Ba/F3 LMNA-NTRK1-G595R cells (CellTiter-Glo); assay type: cell-based; conditions: Mus musculus, BaF3; Table 5; 72 hours
Excerpt: Ba/F3 LMNA-NTRK1-G595R is a stable transgenic cell line constructed by KYinno Biotechnology Co., Ltd. on mouse primary B cell Ba/F3 wherein NTRK1 is highly expressed with a mutation of G at position 595 to R, and fused with LMNA to form LMNA-NTRK1. • [Test method]: Promega's CellTiter-Glo® Luminescent Cell Viability Assay kit was used to evaluate the inhibitory activity of the compounds on the proliferation of Ba/F3 LMNA-NTRK1-G595R cells. • [Instrument]: Spectramax M3 multifunctional microplate reader from Molecular Devices. • [Test materials]: Ba/F3 LMNA-NTRK1-G595R cell line (constructed by KYinno Biotechnology Co., Ltd. (Beijing)), 96-well transparent flat-bottomed black-walled cell culture plate (Corning, cat #3603), RPMI-1640 media (GE, cat #SH30027.01), fetal bovine serum FBS (Thermo Fisher, cat #10099-141), CellTiter-Glo® Luminescent Cell Viability Assay kit (Promega, cat #G7572), PBS (Solarbio, cat #P1020), DMSO (Sigma, cat #D2650). • [Experimental procedure]: When resuscitating Ba/F3 LMNA-NTRK1-G595R cells, the freezing tube was quickly shaken in a 37° C. water bath to melt within 1 minute. The thawed cell suspension was mixed uniformly with RPMI1640 medium containing 10% FBS, centrifuged at 1000 rpm for 5 minutes, and the supernatant discarded. 5 mL of complete medium (RPMI1640 medium with 10% FBS) was taken to resuspend the cell pellets, charged into a cell culture flask with a bottom area of 25 cm^2, and incubated in a cell incubator at 37° C., 95% humidity and 5% CO2. Cells were allowed to passage when the number of cells reached about 10^6 cells/mL. For cell passage, the old cell suspension was directly pipetted evenly, 1/5 of the cell suspension was kept, 4 mL of new complete medium was added, after pipetting evenly, the cell flask was placed in the cell incubator for further culturing. Cell plating was performed when the number of cells reached about 10^6 cells/mL again. For cell plating, 1/5 of the cell suspension was kept for further culturing as in the cell passage method, and the remaining 4/5 of the cell suspension was placed in a 15 mL centrifuge tube, detected for cell viability by Trypan blue exclusion method to ensure that cell viability was above 90%. A cell suspension with a density of 5.56×10^4 viable cells/mL was prepared with complete medium, and 90 μL of such cell suspension was added to a 96-well cell culture plate to obtain the cell density of 5000 viable cells/mL in the cell culture plate. A control group containing no cells, no compound and only complete medium (i.e. culture medium control) and a control group containing no compound but containing cells (i.e. cell control) were set. The cell plate was placed in a cell incubator overnight. The 10 mM compound stock solution in DMSO was first serially diluted with DMSO at a dilution factor of 3.16 times, to obtain 9 concentrations, and the 10th concentration was set as DMSO control without compound. Then, PBS was used to dilute the DMSO solutions of compounds of different concentrations, at a dilution factor of 100 times, so that the DMSO concentration in the compound solution of each concentration was 1%. Finally, 10 μL of each of the above solutions was added to the corresponding cell culture plate, so that the initial compound concentration was 10 μM, with the remaining concentrations being successively diluted at a dilution factor of 3.16 times, and the DMSO content in the cell culture plate was 0.1%. The cell plate was placed in a cell incubator and cultured for 72 hours. For endpoint detection, the CellTiter-Glo reagent was melted, and the cell plate was moved to room temperature to equilibrate for 30 minutes, added with 100 μL of CellTiter-Glo for each well, and shaken on an orbital shaker for 5 minutes to fully lyse the cells. The plate was kept at room temperature for 20 minutes to stabilize the luminescence signal, and the luminescence value of each well was scanned with a multi-functional microplate reader at full wavelength. • [Test samples] […]

MKN45 cells = assay: Proliferation of MKN45 cells; assay type: cell-based; conditions: Homo sapiens, MKN-45; Table 8
Procedure: MKN45 is a human poorly differentiated gastric cancer cell line with high MET expression. Cell proliferation experiments were performed according to literature methods (Zhang, D. et al. Bioorg. Med. Chem. 2013, 21, 6804; Riss, T. L.; Moravec, R. A.; Niles, A. L.; et al. Cell Viability Assays 2013 May 1 [Updated 2016 Jul. 1]. In: Sittampalam, G. S.; Grossman, A.; Brimacombe, K.; et al., editors. Assay Guidance Manual [Internet]. Bethesda (MD): Eli Lilly & Company and the National Center for Advancing Translational Sciences; 2004-. Available from: https://www.ncbi.nlm.nih.gov/books/NBK144065/).

Compound	IC50 [1]	IC50 (MKN45 cells)
CC(C)c1ccc(C(=O)Nc2ccc(Oc3cc4cnn(C)c4cc3-c3cn[nH]c3)c(F)c2)c(=O)n1-c1ccc(F)cc1 [Example 6, N-(3-fluoro-4-(1-methyl-6-(1H-pyrazol-4-yl)-1H-indazol-5-yloxy)phenyl)-1-(4-fluorophenyl)-6-isopropyl-2-oxo-1,2-dihydropyridine-3-carboxamide]	747 nM	
COc1ccc(C(=O)Nc2ccc(Oc3cc4cnn(C)c4cc3-c3cn[nH]c3)c(F)c2)c(=O)n1-c1ccc(F)cc1 [Example 12, N-(3-fluoro-4-(1-methyl-6-(1H-pyrazol-4-yl)-1H-indazol-5-yloxy)phenyl)-1-(4-fluorophenyl)-6-methoxy-2-oxo-1,2-dihydropyridine-3-carboxamide]		4 nM
Cn1ncc2cc(Oc3ccc(NC(=O)c4ccc(C(F)(F)F)n(-c5ccc(F)cc5)c4=O)cc3F)c(-c3cn[nH]c3)cc21 [Example 1, N-(3-fluoro-4-(1-methyl-6-(1H-pyrazol-4-yl)-1H-indazol-5-yloxy)phenyl)-1-(4-fluorophenyl)-6-trifluoromethyl-2-oxo-1,2-dihydmpyridine-3-carboxamide monomethanesulfonate]	1440 nM	
Cn1ncc2cc(Oc3ccc(NC(=O)c4ccc(C5CC5)n(-c5ccc(F)cc5)c4=O)cc3F)c(-c3cn[nH]c3)cc21 [Example 2, N-(3-fluoro-4-(1-methyl-6-(1H-pyrazol-4-yl)-1H-indazol-5-yloxy)phenyl)-1-(4-fluorophenyl)-6-cyclopropyl-2-oxo-1,2-dihydmpyridine-3-carboxamide]	752 nM	
CSc1ccc(C(=O)Nc2ccc(Oc3cc4cnn(C)c4cc3-c3cn[nH]c3)c(F)c2)c(=O)n1-c1ccc(F)cc1 [Example 11, N-(3-fluoro-4-(1-methyl-6-(1H-pyrazol-4-yl)-1H-indazol-5-yloxy)phenyl)-1-(4-fluorophenyl)-6-methylthio-2-oxo-1,2-dihydropyidine-3-carboxamide]		12 nM
Cc1ccc(C(=O)Nc2ccc(Oc3cc4cnn(C(C)C)c4cc3-c3cn[nH]c3)c(F)c2)c(=O)n1-c1ccc(F)cc1 [Example 4, N-(3-fluoro-4-(1-isopropyl-6-(1H-pyrazol-4-yl)-1H-indazol-5-yloxy)phenyl)-1-(4-fluorophenyl)-6-methyl-2-oxo-1,2-dihydmpyridine-3-carboxamide]	4650 nM	
CCn1ncc2cc(Oc3ccc(NC(=O)c4ccc(C)n(-c5ccc(F)cc5)c4=O)cc3F)c(-c3cn[nH]c3)cc21 [Example 3, N-(3-fluoro-4-(1-ethyl-6-(1H-pyrazol-4-yl)-1H-indazol-5-yloxy)phenyl)-1-(4-fluorophenyl)-6-methyl-2-oxo-1,2-dihydmpyridine-3-carboxamide]	3150 nM	
CCc1ccc(C(=O)Nc2ccc(Oc3cc4cnn(C)c4cc3-c3cn[nH]c3)c(F)c2)c(=O)n1-c1ccc(F)cc1 [Example 5, N-(3-fluoro-4-(1-methyl-6-(1H-pyrazol-4-yl)-1H-indazol-5-yloxy)phenyl)-1-(4-fluorophenyl)-6-ethyl-2-oxo-1,2-dihydropyridine-3-carboxamide]	799 nM	

Now from value to molecule:

IC50 [1]	IC50 (MKN45 cells)	Compound
	9 nM	CC(C)Oc1ccc(C(=O)Nc2ccc(Oc3cc4cnn(C)c4cc3-c3cn[nH]c3)c(F)c2)c(=O)n1-c1ccc(F)cc1 [Example 16, N-(3-fluoro-4-(1-methyl-6-(1H-pyrazol-4-yl)-1H-indazol-5-yloxy)phenyl)-1-(4-fluorophenyl)-6-isopropoxy-2-oxo-1,2-dihydropyridine-3-carboxamide]
3660 nM	> 10000 nM	O=C(Nc1cnn2ccc(N3CCC[C@@H]3c3cc(F)ccc3F)nc12)N1CC[C@H](O)C1 [LOXO-101, Larotrectinib, reference compound]
1010 nM	19 nM	Cc1ccc(C(=O)Nc2ccc(Oc3cc4cnn(C)c4cc3-c3cn[nH]c3)c(F)c2)c(=O)n1-c1ccc(F)cc1 [Merestinib, reference compound]
	11 nM	CCOc1ccc(C(=O)Nc2ccc(Oc3cc4cnn(C)c4cc3-c3cn[nH]c3)c(F)c2)c(=O)n1-c1ccc(F)cc1 [Example 14, N-(3-fluoro-4-(1-methyl-6-(1H-pyrazol-4-yl)-1H-indazol-5-yloxy)phenyl)-1-(4-fluorophenyl)-6-ethoxy-2-oxo-12-dihydropyridine-3-carboxamide]
